{
  "source": "patent US12440478B2",
  "about": "“Process for preparing a potent thiazole compound, pharmaceutical formulation and uses thereof” (AHAMMUNE BIOSCIENCES PRIVATE LIMITED, priority 2018, dated 2025)",
  "key": {"[1]": {"system": "cells that expressed a mutant form of rhodopsin", "conditions": "mutant rhodopsin of autosomal dominant retinitis pigmentosa; protein misfolding and ER stress; cited from earlier work"}, "melanocytes": {"system": "melanocytes", "experiment": "Secreted melanin in cell culture supernatant (Test 3)", "format": "cell-based", "conditions": "72 h, with tunicamycin; % of control; FIG. 3", "method": "Cells were treated as indicated for 72 h. After incubation, cell culture supernatant was used for the estimation of secreted melanin. Secreted melanin was measured at 405 nm against cell culture medium as blank. Melanin levels were normalized to the total cellular proteins and represented as % of control."}, "black guinea pigs": {"system": "black guinea pigs", "experiment": "Animal model of vitiligo, topical application to ears (Test 6)", "format": "in vivo, guinea pig", "conditions": "1% w/w topical formulation, 4 weeks, versus placebo treated ear; FIG. 6", "method": "Topical formulation (1% w/w N-[2-[2-(4-chlorophenyl)-4-thiazolyl]ethyl]-butanamide) was prepared. Similarly, a placebo formulation was also prepared which was exactly similar to the N-[2-[2-(4-chlorophenyl)-4-thiazolyl]ethyl]-butanamide formulation except the active compound. The animal model of vitiligo was developed in black guinea pigs and the placebo and N-[2-[2-(4-chlorophenyl)-4-thiazolyl]ethyl]-butanamide formulations were applied on to the left and right ears respectively."}, "B16-F10 melanocytes": {"system": "B16-F10 melanocytes", "experiment": "MTT cell viability after tunicamycin-induced ER stress (Test 1)", "format": "cell-based", "conditions": "pre-treated 6 h, then 300 ng/ml tunicamycin, 72 h; FIG. 1", "method": "B16-F10 melanocytes were seeded (5000 cells per well) in 96-well plates for 24 h. Cells were then treated in quadruplicate with indicated concentration of N-[2-[2-(4-chlorophenyl)-4-thiazolyl]ethyl]-butanamide for 6 h. All the compounds dilutions were made in DMSO and the concentration of the vehicle (DMSO) was kept constant (0.1%) in each well. Cells were then treated with 300 ng/ml tunicamycin to cause ER stress and after 72 h of treatment, cells were observed under microscope and images were captured. Then MTT assay was performed to measure the cell viability. Briefly, MTT (0.5 mg/ml) was added to each well and further incubated for 1 h. Culture medium was removed and the reduced MTT (formazen) was dissolved in DMSO (100 μl per well) and measured at 570 nm. Cell growth in vehicle control was calculated as 100% and the effect of the compounds were calculated accordingly."}, "[2]": {"system": "ER (endoplasmic reticulum)", "conditions": "cited from earlier work"}, "B16-F10 cells [3]": {"system": "B16-F10 cells", "experiment": "Tyrosinase activity with cocktail of inflammatory cytokines (Test 4)", "format": "cell-based", "conditions": "pre-treated 6 h, TNFα, IL1β, IFNγ 10 ng/ml each, 72 h; FIG. 4", "method": "In FIG. 4—Cocktail of inflammatory cytokines—Inflammatory cytokines cause inflammation in the system and are implicated for the vitiligo pathology. The “cocktail of inflammatory cytokines” include tumour necrosis factor-alpha (TNFα), interleukin-1 beta (IL-1B) and interferon gamma (IFNγ) at a final concentration of 10 ng/ml each.\nB16-F10 cells were seeded in 24-well plates (80000 cells per well) for 24 h. Cells were then treated with indicated concentrations of N-[2-[2-(4-chlorophenyl)-4-thiazolyl]ethyl]-butanamide. After 6 h of treatment with N-[2-[2-(4-chlorophenyl)-4-thiazolyl]ethyl]-butanamide, a cocktail of inflammatory cytokines (TNFα, IL1β, IFNγ—10 ng/ml each) was added to indicated wells. After 72 h of treatments, cells were washed with PBS and lysed in phosphate buffer (pH 6.8) containing 1 mM EDTA and 01% Triton X-100. Lysate was cleared by centrifugation (12000×g) for 10 min and clear lysate (20 μl) was used for tyrosinase assay. The final concentrations of tyrosinase assay mixture were as follows: phosphate buffer (50 mM, pH 6.8), L-DOPA (1 mM), MBTH (6 mM), DMF (2%). Tyrosinase activity led to the conversion of L-DOPA into dopachrome that binds to MBTH and forms a color complex which is read at 492 nm. Tyrosinase activity was normalized to total cellular proteins measured by Bradford's reagent and represented as % of vehicle control."}, "obese-diabetic mouse": {"system": "obese-diabetic mouse", "conditions": "multiple obese-diabetic mouse models; cited from earlier work"}, "[4]": {"system": "NHEM, A375 melanoma, B16-F10 melanoma and NIH-3T3 fibroblasts", "experiment": "Cytotoxicity as LDH release (Test 5)", "format": "cell-based", "conditions": "24 hours treatment; FIG. 5", "method": "NHEM (normal human […] melanocytes), A375 melanoma, B16-F10 melanoma and NIH-3T3 fibroblasts were seeded in 96 well plates for 24 hours. Cells were then treated with VC (DMSO, 0.1%) or with indicated concentrations of N-[2-[2-(4-chlorophenyl)-4-thiazolyl]ethyl]-butanamide for 24 hours. After incubation period, cytotoxicity was measured as % of total LDH released in the culture medium."}, "B16-F10 cells [5]": {"system": "B16-F10 cells", "experiment": "Tyrosinase activity with tunicamycin treatment (Test 2)", "format": "cell-based", "conditions": "pre-treated 6 h, tunicamycin 300 ng/ml, 72 h; % of vehicle control; FIG. 2", "method": "B16-F10 cells were seeded in 24-well plates (20000 cells per well) for 24 h. Cells were then treated with indicated concentrations of N-[2-[2-(4-chlorophenyl)-4-thiazolyl]ethyl]-butanamide. After 6 h of treatment with N-[2-[2-(4-chlorophenyl)-4-thiazolyl]ethyl]-butanamide, tunicamycin (300 ng/ml) was added to the indicated wells. After 72 h of treatments, cells were washed with PBS and lysed in phosphate buffer (pH 6.8) containing 1 mM EDTA and 01% Triton X-100. Lysate was cleared by centrifugation (12000×g) for 10 min and clear lysate (20 μl) was used for tyrosinase assay. The final concentrations of tyrosinase assay mixture were as follows: phosphate buffer (50 mM, pH 6.8), L-DOPA (1 mM), MBTH (6 mM), DMF (2%). Tyrosinase activity was measured by measuring the colored complex formed at 492 nm. Tyrosinase activity was normalized to total cellular proteins measured by Bradford's reagent and represented as % of vehicle control."}},
  "data": [
    {"smiles": "CCCC(=O)NCCc1csc(-c2ccc(Cl)cc2)n1", "note": "[N-[2-[2-(4-chlorophenyl)-4-thiazolyl]ethyl]-butanamide]", "values": [
      {"measurement": "prevention of cell death", "setting": "[1]", "value": "effective in preventing the death of cells"},
      {"measurement": "melanin secretion (melanin levels)", "setting": "melanocytes", "value": "increases melanin levels and reverses the tunicamycin effect"},
      {"measurement": "ear pigmentation", "setting": "black guinea pigs", "value": "potency to cause repigmentation"},
      {"measurement": "cell viability (MTT)", "setting": "B16-F10 melanocytes", "value": "protects melanocytes from tunicamycin induced cell death in a dose dependent manner"},
      {"measurement": "ER protein folding output", "setting": "[2]", "value": "increasing ER protein folding output"},
      {"measurement": "chaperone expression", "setting": "[2]", "value": "chronically inducing chaperone expression"},
      {"measurement": "tyrosinase activity under inflammation", "setting": "B16-F10 cells [3]", "value": "negates inflammation induced effect in melanocytes"},
      {"measurement": "B-cell function", "setting": "obese-diabetic mouse", "value": "improved"},
      {"measurement": "glucose tolerance", "setting": "obese-diabetic mouse", "value": "improved"},
      {"measurement": "insulin sensitivity", "setting": "obese-diabetic mouse", "value": "improved"},
      {"measurement": "cytotoxicity (% of total LDH released)", "setting": "[4]", "value": "no cytotoxicity"},
      {"measurement": "tyrosinase activity", "setting": "B16-F10 cells [5]", "value": "increases tyrosinase activity and reverses the tunicamycin effect"}
    ]}
  ]
}
